Test results as given in patent US5284947A, “Multiple drug resistance-attenuating compounds” (Abbott Laboratories, priority 1992, dated 1994).
In brackets after ≈: the same amount, converted by molar mass. Read-outs that look alike come from different tables or passages of the source.

Columns and labels:
[1] = test system: certain mammalian target cells; conditions: known compounds; cited from earlier work
[2] = test system: KB V1 cells (multiple drug resistant); experiment: Chemosensitization (cytotoxicity) assay of multiple drug resistant cells, MTT; assay type: cell-based; conditions: Homo sapiens, KB-V1, 72 h
Protocol: (§1) Cytotoxicity assays to determine 50% inhibition of growth (IC50) were done in 96-well tissue culture microtiter trays (Costar, Cambridge, Mass.). Cell growth was determined as follows: KB 3-1 (sensitive) and KB V1 (multiple drug resistant) cells grown in Dulbecco's modified Eagle medium (Gibco BRL, Division of Life Technologies, Inc., Grand Island, N.Y.) were added to each microtiter well at 1×10^4 cells in 200 μL of growth medium in the presence and absence of verapamil, 5-acetylardeemin and 5-acetyl-15b-β-hydroxyardeemin at […]. Anticancer cytotoxic agents adriamycin (ADR), vinblastine (VBL) and vincristine (VCR) (Sigma, St. Louis, Mo.) were added in final concentrations ranging from 0.0001 to 10 μg/mL. Cells were incubated at 37° C. in a humidified atmosphere of 4% CO2 for 72 hours. Cell growth was measured by the reduction of 3-(4,5-dimethyl-thiazol-2-yl)-2,5-diphenyltetrazolium bromide (MTT), added to each well at 0.1 mg/mL. The plates were incubated at 37° C. in humidified 4% CO2 for 3 hours. The trays were spun at 1000×g for 10 minutes, the supernatant removed by aspiration and the residual formazan reduction product dissolved in 100 μL of DMSO. Growth was quantitated by measuring the optical absorbance in each well at 570 nm in a microtiter plate reader.

KB 3-1 cells (sensitive) = experiment: Cytotoxicity assay in drug-sensitive cells, MTT; assay type: cell-based; conditions: Homo sapiens, modulator: none, 72 hours
Protocol: as §1

COc1ccc([C@@H]2Sc3ccccc3N(CCN(C)C)C(=O)[C@@H]2OC(C)=O)cc1 [diltiazem]
attenuation of drug resistance [1]: attenuate, if not reverse, drug resistance in certain mammalian target cells

COc1cccc2c1C(=O)c1c(O)c3c(c(O)c1C2=O)C[C@@](O)(C(=O)CO)C[C@@H]3O[C@H]1C[C@H](N)[C@H](O)[C@H](C)O1 [ADR, adriamycin]
IC50 ([2]; read-out: ADR-IC50): 3 µg/mL
IC50 (KB 3-1 cells (sensitive); read-out: ADR-IC50): 0.012 µg/mL (≈ 22.1 nM)

CCC1=C[C@@H]2CN3CCc4c([nH]c5ccccc45)[C@@](C(=O)OC)(C2)[C@@H]13 [catharanthine]
attenuation of drug resistance [1]: attenuate, if not reverse, drug resistance in certain mammalian target cells

COc1ccc(CCN(C)CCCC(C#N)(c2ccc(OC)c(OC)c2)C(C)C)cc1OC (stereo not drawn) [Verapamil, verapamil]
attenuation of drug resistance [1]: attenuate, if not reverse, drug resistance in certain mammalian target cells

CC[C@]1(O)C[C@H]2CN(CCc3c([nH]c4ccccc34)[C@@](C(=O)OC)(c3cc4c(cc3OC)N(C=O)[C@H]3[C@@](O)(C(=O)OC)[C@H](OC(C)=O)[C@]5(CC)C=CCN6CC[C@]43[C@@H]65)C2)C1 [VCR, vincristine]
IC50 ([2]; read-out: VCR-IC50): 7 µg/mL
IC50 (KB 3-1 cells (sensitive); read-out: VCR-IC50): 0.001 µg/mL (≈ 1.21 nM)

CC[C@]1(O)C[C@@H]2CN(CCc3c([nH]c4ccccc34)[C@@](C(=O)OC)(c3cc4c(cc3OC)N(C)[C@H]3[C@@](O)(C(=O)OC)[C@H](OC(C)=O)[C@]5(CC)C=CCN6CC[C@]43[C@@H]65)C2)C1 [VBL, vinblastine]
IC50 ([2]; read-out: VBL-IC50): 1.2 µg/mL
IC50 (KB 3-1 cells (sensitive); read-out: VBL-IC50): 0.001 µg/mL (≈ 1.23 nM)
